Assay results reported in US6737383B1, “Herbicidal oxadiazolidines” (priority 1999, dated 2004).

Experiments:
Details in all cases: Preemergence
bedstraw = experiment: Test B pre/postemergence bedstraw; type: in vivo, Galium aparine
Outline: (§1)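 Test chemicals in a non-phytotoxic solvent mixture with surfactant were sprayed preemergence onto planted seeds and postemergence onto plants 2 to 18 cm tall (1- to 4-leaf stage). After twelve to sixteen days in a greenhouse, injury was visually rated against untreated controls from 0 (no effect) to 10 (complete control).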

blackgrass = experiment: Test B pre/postemergence blackgrass; type: in vivo, Alopecurus myosuroides
Outline: as §1

surinam grass = experiment: Test B pre/postemergence surinam grass; type: in vivo, Brachiaria decumbens
Outline: as §1

cocklebur = experiment: Test B pre/postemergence cocklebur; type: in vivo, Xanthium strumarium
Outline: as §1

corn = experiment: Test B pre/postemergence corn; type: in vivo, Zea mays
Outline: as §1

crabgrass = experiment: Test B pre/postemergence crabgrass; type: in vivo, Digitaria sanguinalis
Outline: as §1

giant foxtail = experiment: Test B pre/postemergence giant foxtail; type: in vivo, Setaria faberii
Outline: as §1

morningglory = experiment: Test B pre/postemergence morningglory; type: in vivo, Ipomoea hederacea
Outline: as §1

pigweed = experiment: Test B pre/postemergence pigweed; type: in vivo, Amaranthus retroflexus
Outline: as §1

rape = experiment: Test B pre/postemergence rape; type: in vivo, Brassica napus
Outline: as §1

soybean = experiment: Test B pre/postemergence soybean; type: in vivo, Glycine max
Outline: as §1

sugar beet = experiment: Test B pre/postemergence sugar beet; type: in vivo, Beta vulgaris
Outline: as §1

velvetleaf = experiment: Test B pre/postemergence velvetleaf; type: in vivo, Abutilon theophrasti
Outline: as §1

wheat = experiment: Test B pre/postemergence wheat; type: in vivo, Triticum aestivum
Outline: as §1

wild oat = experiment: Test B pre/postemergence wild oat; type: in vivo, Avena fatua
Outline: as §1

purple nutsedge = experiment: Test B pre/postemergence purple nutsedge; type: in vivo, Cyperus rotundus
Outline: as §1

[1] = Rate 125 g/ha, scale of 0 to 10 where 0 is no effect and 10 is complete control
[2] = Rate 250 g/ha, scale 0 (no effect) to 10 (complete control)
[3] = Rate 500 g/ha, scale 0 to 10 (0 no effect, 10 complete control)

COCC(OC)n1c(=O)on(C(=O)N(c2ccc(F)cc2F)C(C)C)c1=O (centres unmarked) [Compound 738]
Plant response rating, Bedstraw (bedstraw; [1]): 0
Bedstraw plant response rating (bedstraw; [2]): 0
Bedstraw plant response rating (bedstraw; Rate 62 g/ha, scale 0 to 10): 0
Bedstraw plant response rating (bedstraw; [3]): 0
Plant response rating, Blackgrass (blackgrass; [1]): 10
Blackgrass plant response rating (blackgrass; [2]): 10
Blackgrass plant response rating (blackgrass; Rate 62 g/ha, scale 0 to 10): 8
Blackgrass plant response rating (blackgrass; [3]): 10
B. signalgrass plant response rating (surinam grass; Rate 62 g/ha, scale of 0 to 10 where 0 is no effect and 10 is complete control): 6
Plant response rating, B. signalgrass (surinam grass; [1]): 9
B. signalgrass plant response rating (surinam grass; [2]): 10
B. signalgrass plant response rating (surinam grass; [3]): 10
Plant response rating, Cocklebur (cocklebur; [1]): 0
Cocklebur plant response rating (cocklebur; [2]): 0
Cocklebur plant response rating (cocklebur; Rate 62 g/ha, scale 0 to 10): 0
Cocklebur plant response rating (cocklebur; [3]): 0
Plant response rating, Corn (corn; [1]): 4
Corn plant response rating (corn; [2]): 7
Corn plant response rating (corn; Rate 62 g/ha, scale 0 to 10): 0
Corn plant response rating (corn; [3]): 9
Plant response rating, Crabgrass (crabgrass; [1]): 9
Crabgrass plant response rating (crabgrass; [2]): 9
Crabgrass plant response rating (crabgrass; Rate 62 g/ha, scale 0 to 10): 8
Crabgrass plant response rating (crabgrass; [3]): 10
Plant response rating, Giant foxtail (giant foxtail; [1]): 9
Giant foxtail plant response rating (giant foxtail; [2]): 10
Giant foxtail plant response rating (giant foxtail; Rate 62 g/ha, scale 0 to 10): 8
Giant foxtail plant response rating (giant foxtail; [3]): 10
Plant response rating, Morningglory (morningglory; [1]): 1
Morningglory plant response rating (morningglory; [2]): 2
Morningglory plant response rating (morningglory; Rate 62 g/ha, scale 0 to 10): 1
Morningglory plant response rating (morningglory; [3]): 4
Plant response rating, Redroot pigweed (pigweed; [1]): 7
Redroot pigweed plant response rating (pigweed; [2]): 8
Redroot pigweed plant response rating (pigweed; Rate 62 g/ha, scale 0 to 10): 6
Redroot pigweed plant response rating (pigweed; [3]): 8
Plant response rating, Rape (rape; [1]): 5
Rape plant response rating (rape; [2]): 6
Rape plant response rating (rape; Rate 62 g/ha, scale 0 to 10): 2
Rape plant response rating (rape; [3]): 8
Plant response rating, Soybean (soybean; [1]): 0
Soybean plant response rating (soybean; [2]): 0
Soybean plant response rating (soybean; Rate 62 g/ha, scale 0 to 10): 0
Soybean plant response rating (soybean; [3]): 0
Plant response rating, Sugarbeets (sugar beet; [1]): 6
Sugarbeets plant response rating (sugar beet; [2]): 6
Sugarbeets plant response rating (sugar beet; Rate 62 g/ha, scale 0 to 10): 3
Sugarbeets plant response rating (sugar beet; [3]): 8
Plant response rating, Velvetleaf (velvetleaf; [1]): 1
Velvetleaf plant response rating (velvetleaf; [2]): 6
Velvetleaf plant response rating (velvetleaf; Rate 62 g/ha, scale 0 to 10): 0
Velvetleaf plant response rating (velvetleaf; [3]): 8
Plant response rating, Wheat (wheat; [1]): 4
Wheat plant response rating (wheat; [2]): 5
Wheat plant response rating (wheat; Rate 62 g/ha, scale 0 to 10): 2
Wheat plant response rating (wheat; [3]): 8
Plant response rating, Wild oats (wild oat; [1]): 9
Wild oats plant response rating (wild oat; [2]): 10
Wild oats plant response rating (wild oat; Rate 62 g/ha, scale 0 to 10): 4
Wild oats plant response rating (wild oat; [3]): 10
Nutsedge plant response rating (purple nutsedge; [2]): 4
Nutsedge plant response rating (purple nutsedge; [3]): 8
